In paper PMC9964390, “Design, Synthesis and Phenotypic Profiling of Simplified Gedatolisib Analogues” (Pharmaceuticals, 2023):
Converted amounts (≈) assume the structure as drawn. Read-outs that look alike come from different tables or passages of the source.

What was measured:
[1] = pH-dependent aqueous solubility (UV spectrophotometry); assay type: physicochemical; details: aqueous buffer, thermodynamic from solid, 37 °C
Protocol: A stock solution of the target compound was prepared by dissolving 1 mg in methanol, and the wavelength of greatest absorption of each compound was obtained by scanning between wavelengths from 200 nm to 500 nm. Six dilutions were prepared from the stock solution and the absorbance reading in the UV spectrophotometer (SpectraMax M5, Molecular Devices, USA). The calibration curve with linear regression was created with the values obtained, and the solubility test was measured by correlating the concentration with the absorbance obtained by ultraviolet. Each compound was added in excess at phosphate buffer solution pH 5.8 and 7.4 to obtain a supersaturated solution that was kept under stirring for 4 h at 37 °C and then was filtered through a 0.45 µm filter for reading at the corresponding wavelengths. The solubility was determined through the equation of the straight line obtained by the linear regression of the calibration curve of the compounds [24, 25].

[2] = test system: PC-3, MCF7, K562, CCRF-CEM and MOLT-4; test: MTT single-concentration cytotoxicity screening; assay type: cell-based, human; details: for solubility in the culture medium: during screening at 30 μM; for cytotoxic activity at screening concentration: single concentration 1 μM; for cytotoxic effect on leukemia cell lines at single concentration: single concentration 30 μM, reduction in cell viability ≥ 50% selected for CC50
Protocol: In a first approach, the assay was validated with two standard drugs: gedatolisib and GSK-1059615.
After understanding the response profile of the selected cell lines to the treatment with gedatolisib and GSK-1059615, we investigated the cytotoxic activity of compounds 5a-f at a single concentration (30 μM). […] During the experiments, compounds 5a (LASSBio-2250), 5b (LASSBio-2251) and 9 (CAS-942789959) were insoluble and precipitated on the culture medium. Therefore, they were evaluated also at the screening concentration of 1 μM.
(§1) Cell viability was assessed by the MTT assay. The lines selected for this study were plated according to their respective densities, which ranged from 3 × 10^4 to 4 × 10^4 cells per well. Subsequently, they were treated with test compounds at different concentrations (0.00003 μM to 150 μM), gedatolisib and GSK-1059615.
(§2) After incubation, the plates are centrifuged at 440× g for 10 min. Then, 110 μL of the supernatant was withdrawn and each well received 10μL of the MTT solution. The plate was again incubated in an oven at 37 °C and 5% CO2 for 3 to 4 h. At the end of the incubation time, 100 μL of SDS-HCL detergent was added to solubilize the formazan crystals. The plate was shaken on an automatic overnight shaker and then read at a wavelength of 595 nm on the Molecular Devices Spectramax M5 plate reader.

[3] = test system: K562; test: MTT cell viability assay; assay type: cell-based; details: Homo sapiens, K562, 72 h MTT; for CC50: 95% confidence interval in brackets; for Emax: read-out: Emax (maximum effect at maximum concentration used)
Protocol: (§3) For the evaluation of cellular cytotoxicity in cancer cell lines, the compounds were tested at concentrations ranging from 0.00003 μM to 150 μM. Immortalized cancer cells were selected: PC-3 (PTEN-mutated prostate adenocarcinoma), MCF-7 (PI3KCA-mutated breast carcinoma), K562 (P53-mutated chronic myeloid leukemia), CCRF-CEM (acute lymphoblastic leukemia with mutation in PTEN) and MOLT-4 (acute lymphoblastic leukemia with mutation in PI3KR1/PTEN). Peripheral blood mononuclear cells (PBMCs) were used to determine the cytotoxic selectivity index (SI). All immortalized cells were cultured in RPMI 1640 medium with 10% (v/v) FBS, streptomycin + penicillin, at 37 °C in a humidified incubator containing 5% CO2.
as §1, §2

[4] = test system: MCF7; test: MTT cell viability assay; assay type: cell-based; details: Homo sapiens, MCF7, 72 h MTT; for CC50: 95% confidence interval in brackets; for Emax: read-out: Emax (maximum effect at maximum concentration used)
Protocol: as §3, §1, §2

[5] = test system: PC-3; test: MTT cell viability assay; assay type: cell-based; details: Homo sapiens, PC-3, 72 h MTT; for CC50: 95% confidence interval in brackets; for Emax: read-out: Emax (maximum effect at maximum concentration used)
Protocol: as §3, §1, §2

[6] = test system: CCRF-CEM; test: MTT cell viability assay; assay type: cell-based, human; details: Homo sapiens, 72 h MTT; for CC50: 95% confidence interval in brackets; for Emax: read-out: Emax (maximum effect at maximum concentration used)
Protocol: as §3, §1, §2

[7] = test system: MOLT-4; test: MTT cell viability assay; assay type: cell-based, human; details: Homo sapiens, MOLT-4, 72 h MTT; for CC50: 95% confidence interval in brackets; for Emax: read-out: Emax (maximum effect at maximum concentration used)
Protocol: as §3, §1, §2

[8] = test system: CCRF-CEM cell line; test: Muse Cell Cycle Kit; assay type: cell-based, human; details: 48 h
Protocol: The Guava Muse Luminex® Cell Cycle Kit (catalog n^o MCH100106, Luminex) contains the DNA marker propidium iodide (PI) and RNAse A to avoid nonspecific labelling.
After 48 h of incubation in an incubator at 37 °C with 5% CO2, 1 mL of the MOLT-4 cell solution and 500 µL of the CCRF-CEM cell solution, contained in the wells, were transferred to Eppendorf tubes and centrifuged at 300× g for 5 min. The volumes used ensured that the cell density remained within the recommended range (1 × 10^6 to 4 × 10^6 cells/mL) at the end of the 48 h incubation period.
The supernatant was discarded, and the pellet formed was resuspended in 1 mL of saline PBS, homogenised, and centrifuged at 300× g for 5 min. The formed pellet was resuspended in residual PBS by homogenization. To fix cellular events, 1 mL of ice-cold 70% alcohol was added dropwise into the tubes and vortexed at medium speed. The samples were incubated, before staining, for at least 3 h at −20 °C.
At the end of the incubation time at −20 °C, the samples were centrifuged at 300× g for 5 min, and then the supernatant was discarded and resuspended in 250 µL of PBS. The samples were again centrifuged at 300× g for 5 min and the supernatant discarded, which constituted the washing step. The pellet formed was resuspended in 200 µL of the Guava Muse Luminex® Cell Cycle, and the tubes were incubated for 30 min at room temperature, away from light.
After incubation, the samples were read in Guava Muse Luminex®, and the data with the histograms generated, which contain information on the percentage of the different phases of the cell cycle, were analysed in the statistical program Prism6. This methodology was performed in duplicate of three independent experiments.

[9] = phosphate buffer pH 5.8 (duodenum), read-out: Solubility pH 5.8
[10] = phosphate buffer pH 7.4 (plasma), read-out: Solubility pH 7.4

What does the source list for `c1ccc(N2CCN(c3nc(N4CCOCC4)nc(N4CCSCC4)n3)CC2)cc1` [5a, 4-(4-(4-Phenylpiperazin-1-yl)-6-thiomorpholino-1,3,5-triazin-2-yl)morpholine]?
solubility at 4 h [1, 9]: 0.52 µM (≈ 0.222 µg/mL); solubility at 4 h [1, 10]: 2.88 µM (≈ 1.23 µg/mL); solubility in the culture medium [2]: insoluble; cytotoxic activity at screening concentration [2]: inactive; melting point: 170 °C

Which results are given for `c1ccc(N2CCN(c3nc(N4CCCCC4)nc(N4CCOCC4)n3)CC2)cc1` [5b, 4-(4-(4-Phenylpiperazin-1-yl)-6-(piperidin-1-yl)-1,3,5-triazin-2-yl)morpholine]?
solubility at 4 h [1, 9]: 2.84 µM (≈ 1.16 µg/mL); solubility at 4 h [1, 10]: 0.51 µM (≈ 0.209 µg/mL); solubility in the culture medium [2]: insoluble; cytotoxic activity at screening concentration [2]: inactive

Which CC50 [3] does the source give for `c1ccc(N2CCN(c3nc(N4CCNCC4)nc(N4CCOCC4)n3)CC2)cc1` [5c] here?
The CC50 was 25.6 µM.

And the Emax [3]?
Its Emax is 85%.

What about the CC50 [4] of the same molecule?
The CC50 was > 100 µM.

What about the Emax [4] of the same molecule?
The Emax was 57%.

And the CC50 [5]?
Its CC50 is 92.3 µM.

And the Emax [5]?
The Emax was 58%.

What about the solubility at 4 h [1, 9] of the same molecule?
Its solubility at 4 h is 43.4 µM (≈ 17.8 µg/mL).

What about the solubility at 4 h [1, 10] of the same molecule?
The solubility at 4 h was 59.1 µM (≈ 24.3 µg/mL).

And the “cytotoxic effect on leukemia cell lines at single concentration” value [2]?
The value was “cytotoxic effect”.

And the CC50 [6]?
The CC50 was 37.3 µM.

And the Emax [6]?
The Emax was 94%.

And the CC50 [7]?
The CC50 was 31.8 µM.

And the Emax [7]?
The Emax was 93%.

What does the source list for `CN1CCN(c2nc(N3CCOCC3)nc(N3CCN(c4ccccc4)CC3)n2)CC1` [5d, 4-(4-(4-Methylpiperazin-1-yl)-6-(4-phenylpiperazin-1-yl)-1,3,5-triazin-2-yl)morpholine]?
CC50 [3]: 50.2 µM; Emax [3]: 80%; CC50 [4]: > 100 µM; Emax [4]: 77%; CC50 [5]: 91.3 µM; Emax [5]: 72%; solubility at 4 h [1, 9]: 30.7 µM (≈ 13 µg/mL); solubility at 4 h [1, 10]: 50.9 µM (≈ 21.6 µg/mL); cytotoxic effect on leukemia cell lines at single concentration [2]: cytotoxic effect; melting point: 135 °C; CC50 [6]: 66.5 µM; Emax [6]: 95%; CC50 [7]: 64.1 µM; Emax [7]: 91%

With `OCCN1CCN(c2nc(N3CCOCC3)nc(N3CCN(c4ccccc4)CC3)n2)CC1` [5e, 2-(4-(4-Morpholino-6-(4-phenylpiperazin-1-yl)-1,3,5-triazin-2-yl)piperazin-1-yl)ethan-1-ol] as the molecule, how does the solubility at 4 h [1, 9] read?
Its solubility at 4 h is 31.2 µM (≈ 14.2 µg/mL).

And the solubility at 4 h [1, 10]?
The solubility at 4 h was 49.1 µM (≈ 22.3 µg/mL).

What about the melting point of the same molecule?
Its melting point is 92 °C.

For `O=C1NC(=O)/C(=C/c2ccc3nccc(-c4ccncc4)c3c2)S1` [GSK-1059615, reference compound], which CC50 [3] is on record?
Its CC50 is 1.82 µM.

And the Emax [3]?
Its Emax is 84%.

And the CC50 [4]?
The CC50 was 0.55 µM.

What about the Emax [4] of the same molecule?
The Emax was 80%.

And the CC50 [5]?
The CC50 was 6.78 µM.

What about the Emax [5] of the same molecule?
The Emax was 67%.

And the CC50 [6]?
Its CC50 is 0.43 µM.

What about the Emax [6] of the same molecule?
Its Emax is 93%.

What about the CC50 [7] of the same molecule?
The CC50 was 0.63 µM.

What about the Emax [7] of the same molecule?
The Emax was 92%.

With `CC[C@]1(O)C[C@H]2CN(CCc3c([nH]c4ccccc34)[C@@](C(=O)OC)(c3cc4c(cc3OC)N(C=O)[C@H]3[C@@](O)(C(=O)OC)[C@H](OC(C)=O)[C@]5(CC)C=CCN6CC[C@]43[C@@H]65)C2)C1` [Vincristine, vincristine] as the molecule, how does the “action on the cell cycle” value ([8]; 5 µM) read?
The value was “increased arrest in the G2/M phase”.

With `c1ccc(N2CCN(c3nc(N4CCOCC4)nc(N4CCOCC4)n3)CC2)cc1` [compound 9, reference compound] as the molecule, how does the solubility at 4 h [1, 9] read?
The solubility at 4 h was 3.92 µM (≈ 1.61 µg/mL).

What about the solubility at 4 h [1, 10] of the same molecule?
The solubility at 4 h was 6.03 µM (≈ 2.48 µg/mL).

And the “solubility in the culture medium” value [2]?
Its value is “insoluble”.

What about the “cytotoxic activity at screening concentration” value [2] of the same molecule?
The value was “inactive”.

For `COc1cccc2c1C(=O)c1c(O)c3c(c(O)c1C2=O)C[C@@](O)(C(=O)CO)C[C@@H]3O[C@H]1C[C@H](N)[C@H](O)[C@H](C)O1` [doxorubicin], which “action on the cell cycle” value ([8]; 0.5 µM) is on record?
Its value is “nonspecific action on the cell cycle”.
